Test results: US10479780B2, “Aminopyrazole derivatives” (Chugai Seiyaku Kabushiki Kaisha, priority 2015, dated 2019)

What was measured:
Assay type in all cases: biochemical
[1] = biological target: T1, human Lck enzyme (Homo sapiens, UniProt P06239); experiment: Lck enzyme inhibitory activity (time-resolved fluorometry, biotinylated peptide phosphorylation); conditions: biotinylated peptide phosphorylation, read-out: LCK_IC50
T1 construct: purchased Carna Biosciences, Inc. 08-170
In short: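 Readout pairs a europium cryptate-labelled anti-phosphotyrosine antibody with XL665-streptavidin, measured by time-resolved fluorescence. IC50 derived from percent inhibition against untreated controls.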

[2] = biological target: T2, human Src enzyme (Homo sapiens, UniProt P12931); experiment: Src enzyme inhibitory activity (time-resolved fluorometry, biotinylated peptide phosphorylation); conditions: biotinylated peptide phosphorylation, read-out: SRC_IC50
T2 construct: purchased Carna Biosciences, Inc. 08-173
In short: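 Compounds were tested for blocking tyrosine phosphorylation of a biotinylated peptide substrate by recombinant human Src. Phosphorylated product was quantified by time-resolved fluorometry using europium cryptate and XL665 conjugates, and IC50 was calculated against the compound-free control.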

[3] = biological target: T3, human Yes1 enzyme (Homo sapiens, UniProt P07947); experiment: Yes1 enzyme inhibitory activity (time-resolved fluorometry, biotinylated peptide phosphorylation); conditions: biotinylated peptide phosphorylation, read-out: YES_IC50
T3 construct: made in house
In short: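 Inhibition was expressed against a compound-free control to give IC50, using TR-FRET read-out (Eu-cryptate anti-pTyr antibody, streptavidin-XL665).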

T2 sequence (P12931 whole entry): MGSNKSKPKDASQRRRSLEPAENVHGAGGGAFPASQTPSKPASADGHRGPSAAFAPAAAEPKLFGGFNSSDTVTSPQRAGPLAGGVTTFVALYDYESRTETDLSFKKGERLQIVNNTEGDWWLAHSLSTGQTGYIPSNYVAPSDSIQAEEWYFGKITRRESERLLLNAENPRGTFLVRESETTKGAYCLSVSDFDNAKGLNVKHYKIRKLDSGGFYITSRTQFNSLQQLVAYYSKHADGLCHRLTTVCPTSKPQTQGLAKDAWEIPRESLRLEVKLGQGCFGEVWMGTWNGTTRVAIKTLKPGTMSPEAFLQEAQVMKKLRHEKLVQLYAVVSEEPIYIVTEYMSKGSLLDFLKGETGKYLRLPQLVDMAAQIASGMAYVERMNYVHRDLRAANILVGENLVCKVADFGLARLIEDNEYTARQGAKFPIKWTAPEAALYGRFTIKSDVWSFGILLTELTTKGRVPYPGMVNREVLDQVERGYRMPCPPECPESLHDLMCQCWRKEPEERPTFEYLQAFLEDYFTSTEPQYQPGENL
T3 sequence (P07947 whole entry): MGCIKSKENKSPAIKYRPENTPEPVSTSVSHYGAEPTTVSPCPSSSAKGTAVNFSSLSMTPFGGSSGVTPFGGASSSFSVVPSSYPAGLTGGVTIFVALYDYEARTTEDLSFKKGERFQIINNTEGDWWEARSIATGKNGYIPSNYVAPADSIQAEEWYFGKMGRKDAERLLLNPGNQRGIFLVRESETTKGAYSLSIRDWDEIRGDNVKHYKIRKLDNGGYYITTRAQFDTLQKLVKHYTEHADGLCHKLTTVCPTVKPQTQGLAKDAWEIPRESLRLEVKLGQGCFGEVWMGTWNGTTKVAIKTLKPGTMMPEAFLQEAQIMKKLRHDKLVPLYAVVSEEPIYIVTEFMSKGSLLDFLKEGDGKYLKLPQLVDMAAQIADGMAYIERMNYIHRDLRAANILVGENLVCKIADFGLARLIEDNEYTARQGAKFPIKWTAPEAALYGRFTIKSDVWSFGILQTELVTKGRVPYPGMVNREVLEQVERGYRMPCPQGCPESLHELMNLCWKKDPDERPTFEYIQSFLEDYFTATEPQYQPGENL
T1 sequence (P06239 whole entry): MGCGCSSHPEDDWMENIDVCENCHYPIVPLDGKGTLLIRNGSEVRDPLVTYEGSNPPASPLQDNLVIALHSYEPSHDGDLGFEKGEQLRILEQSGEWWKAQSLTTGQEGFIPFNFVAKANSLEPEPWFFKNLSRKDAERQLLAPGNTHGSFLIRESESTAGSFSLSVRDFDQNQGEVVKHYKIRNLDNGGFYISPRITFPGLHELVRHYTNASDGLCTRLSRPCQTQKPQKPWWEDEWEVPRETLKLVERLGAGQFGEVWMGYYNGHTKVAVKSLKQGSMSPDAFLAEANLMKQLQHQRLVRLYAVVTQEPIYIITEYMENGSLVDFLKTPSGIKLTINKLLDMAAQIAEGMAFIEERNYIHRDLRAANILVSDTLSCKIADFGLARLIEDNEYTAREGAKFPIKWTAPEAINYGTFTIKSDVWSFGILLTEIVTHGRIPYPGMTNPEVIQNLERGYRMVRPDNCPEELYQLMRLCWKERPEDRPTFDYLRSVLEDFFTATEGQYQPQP

Row | SMILES | IC50 [1] | IC50 [2] | IC50 [3]
1 | Cc1cc2cc(C(=O)c3cnn(-c4cnc(Oc5ccccc5F)cc4C)c3N)[nH]c2cc1NS(=O)(=O)c1cccc(C(F)(F)F)c1 [Example 5-1-463, N-[2-[5-amino-1-[6-(2-fluorophenoxy)-4-methylpyridin-3-yl]pyrazole-4-carbonyl]-5-methyl-1H-indol-6-yl]-3-(trifluoromethyl) benzenesulfonamide] | 420 nM | 1900 nM | 12 nM
2 | Cc1cc2cc(C(=O)c3cnn(-c4cnc(Oc5ccccc5F)cc4C)c3N)[nH]c2cc1NS(=O)(=O)c1cccc2ccccc12 [Example 5-1-465, N-[2-[5-amino-1-[6-(2-fluorophenoxy)-4-methylpyridin-3-yl]pyrazole-4-carbonyl]-5-methyl-1H-indol-6-yl]naphthalene-1-sulfonamide] | 510 nM | 4000 nM | 25 nM
3 | Cc1cc2cc(C(=O)c3cnn(-c4cnc(Oc5ccccc5F)cc4C)c3N)[nH]c2cc1NS(=O)(=O)c1ccc2ccccc2c1 [Example 5-1-466, N-[2-[5-amino-1-[6-(2-fluorophenoxy)-4-methylpyridin-3-yl]pyrazole-4-carbonyl]-5-methyl-1H-indol-6-yl]naphthalene-2-sulfonamide] | 520 nM | 4400 nM | 28 nM
4 | Cc1cc2cc(C(=O)c3cnn(-c4cnc(Oc5ccccc5F)cc4C)c3N)[nH]c2cc1NS(=O)(=O)c1csc2ccccc12 [Example 5-1-467, N-[2-[5-amino-1-[6-(2-fluorophenoxy)-4-methylpyridin-3-yl]pyrazole-4-carbonyl]-5-methyl-1H-indol-6-yl]-1-benzothiophene-3-sulfonamide] | 370 nM | 3800 nM | 24 nM
5 | Cc1cc2cc(C(=O)c3cnn(-c4cnc(Oc5ccccc5F)cc4C)c3N)[nH]c2cc1NS(=O)(=O)c1ccccn1 [Example 5-1-477, N-[2-[5-amino-1-[6-(2-fluorophenoxy)-4-methylpyridin-3-yl]pyrazole-4-carbonyl]-5-methyl-1H-indol-6-yl]pyridine-2-sulfonamide] | 48 nM | 250 nM | 5.2 nM
6 | Cc1cc2cc(C(=O)c3cnn(-c4cnc(Oc5ccccc5F)cc4C)c3N)[nH]c2cc1NS(=O)(=O)c1cc(C#N)ccn1 [Example 5-1-478, N-[2-[5-amino-1-[6-(2-fluorophenoxy)-4-methylpyridin-3-yl]pyrazole-4-carbonyl]-5-methyl-1H-indol-6-yl]-4-cyanopyridine-2-sulfonainide] | 77 nM | 280 nM | 4.8 nM
7 | Cc1cc2cc(C(=O)c3cnn(-c4cnc(Oc5ccccc5F)cc4C)c3N)[nH]c2cc1NS(=O)(=O)c1cccc(C#N)n1 [Example 5-1-479, N-[2-[5-amino-1-[6-(2-fluorophenoxy)-4-methylpyridin-3-yl]pyrazole-4-carbonyl]-5-methyl-1H-indol-6-yl]-6-cyanopyridine-2-sulfonamide] | 170 nM | 770 nM | 3.3 nM
8 | Cc1cc2cc(C(=O)c3cnn(-c4cnc(Oc5ccccc5F)cc4C)c3N)[nH]c2cc1NS(=O)(=O)c1cncc(C#N)c1 [Example 5-1-480, N-[2-[5-amino-1-[6-(2-fluorophenoxy)-4-methylpyridin-3-yl]pyrazole-4-carbonyl]-5-methyl-1H-indol-6-yl]-5-cyanopyridine-3-sulfonamide] | 100 nM | 400 nM | 6.4 nM
9 | Cc1cc(C#N)cc(S(=O)(=O)Nc2cc3[nH]c(C(=O)c4cnn(-c5cnc(Oc6ccccc6F)cc5C)c4N)cc3cc2C)n1 [Example 5-1-481, N-[2-[5-amino-1-[6-(2-fluorophenoxy)-4-methylpyridin-3-yl]pyrazole-4-carbonyl]-5-methyl-1H-indol-6-yl]-4-cyano-6-methylpyridine-2-sulfonamide] | 110 nM | 450 nM | 5.4 nM
10 | COc1ccnc(S(=O)(=O)Nc2cc3[nH]c(C(=O)c4cnn(-c5cnc(Oc6ccccc6F)cc5C)c4N)cc3cc2C)c1 [Example 5-1-482, N-[2-[5-amino-1-[6-(2-fluorophenoxy)-4-methylpyridin-3-yl]pyrazole-4-carbonyl]-5-methyl-1H-indol-6-yl]-4-methoxypyridine-2-sulfonamide] | 140 nM | 480 nM | 6.3 nM
11 | COc1cncc(S(=O)(=O)Nc2cc3[nH]c(C(=O)c4cnn(-c5cnc(Oc6ccccc6F)cc5C)c4N)cc3cc2C)c1 [Example 5-1-484, N-[2-[5-amino-1-[6-(2-fluorophenoxy)-4-methylpyridin-3-yl]pyrazole-4-carbonyl]-5-methyl-1H-indol-6-yl]-5-methoxypyridine-3-sulfonamide] | 140 nM | 570 nM | 6.9 nM
12 | Cc1cc2cc(C(=O)c3cnn(-c4cnc(Oc5ccccc5F)cc4C)c3N)[nH]c2cc1NS(=O)(=O)c1cc(C(F)(F)F)ccn1 [Example 5-1-485, N-[2-[5-amino-1-[6-(2-fluorophenoxy)-4-methylpyridin-3-yl]pyrazole-4-carbonyl]-5-methyl-1H-indol-6-yl]-4-(trifluoromethyl) pyridine-2-sulfonamide] | 110 nM | 520 nM | 6.8 nM
13 | Cc1cc2cc(C(=O)c3cnn(-c4cnc(Oc5ccccc5F)cc4C)c3N)[nH]c2cc1NS(=O)(=O)c1cccc(C(F)(F)F)n1 [Example 5-1-486, N-[2-[5-amino-1-[6-(2-fluorophenoxy)-4-methylpyridin-3-yl]pyrazole-4-carbonyl]-5-methyl-1H-indol-6-yl]-6-(trifluoromethyl) pyridine-2-sulfonamide] | 160 nM | 620 nM | 7.3 nM
14 | Cc1cc2cc(C(=O)c3cnn(-c4cnc(Oc5ccccc5F)cc4C)c3N)[nH]c2cc1NS(=O)(=O)c1cncc(C(F)(F)F)c1 [Example 5-1-487, N-[2-[5-amino-1-[6-(2-fluorophenoxy)-4-methylpyridin-3-yl]pyrazole-4-carbonyl]-5-methyl-1H-indol-6-yl]-5-(trifluoromethyl) pyridine-3-sulfonamide] | 110 nM | 510 nM | 11 nM

Now from value to molecule:

Row | IC50 [1] | IC50 [2] | IC50 [3] | SMILES
15 | 260 nM | 1000 nM | 6.1 nM | Cc1cccc(S(=O)(=O)Nc2cc3[nH]c(C(=O)c4cnn(-c5cnc(Oc6ccccc6F)cc5C)c4N)cc3cc2C)c1 [Example 5-1-462, N-[2-[5-amino-1-[6-(2-fluorophenoxy)-4-methylpyridin-3-yl]pyrazole-4-carbonyl]-5-methyl-1H-indol-6-yl]-3-methylbenzenesulfonamide]
16 | 310 nM | 1200 nM | 9.3 nM | Cc1cc2cc(C(=O)c3cnn(-c4cnc(Oc5ccccc5F)cc4C)c3N)[nH]c2cc1NS(=O)(=O)c1cccc(Cl)c1 [Example 5-1-464, N-[2-[5-amino-1-[6-(2-fluorophenoxy)-4-methylpyridin-3-yl]pyrazole-4-carbonyl]-5-methyl-1H-indol-6-yl]-3-chlorobenzenesulfonamide]
17 | 430 nM | 7800 nM | 11 nM | Cc1cc(-n2ncc(C(=O)c3cc4cc(C)c(N5C(=O)NC6(CCC6)C5=O)cc4[nH]3)c2N)ccc1Oc1ccccc1F [Example 5-1-468, 7-[2-[5-amino-1-[4-(2-fluorophenoxy)-3-methylphenyl]pyrazole-4-carbonyl]-5-methyl-1H-indol-6-yl]-5,7-diazaspiro[3.4]octane-6,8-dione]
18 | 100 nM | 2700 nM | 9 nM | Cc1cc(-n2ncc(C(=O)c3cc4cc(C)c(N5C(=O)NC6(CCOCC6)C5=O)cc4[nH]3)c2N)ccc1Oc1ccccc1F [Example 5-1-469, 3-[2-[5-amino-1-[4-(2-fluorophenoxy)-3-methylphenyl]pyrazole-4-carbonyl]-5-methyl-1H-indol-6-yl]-8-oxa-1,3-diazaspiro[4.5] decane-2,4-dione]
19 | 240 nM | 3500 nM | 17 nM | Cc1cc(-n2ncc(C(=O)c3cc4cc(C)c(N5C(=O)NC6(CC6)C5=O)cc4[nH]3)c2N)ccc1Oc1ccccc1F [Example 5-1-473, 6-[2-[5-amino-1-[4-(2-fluorophenoxy)-3-methylphenyl]pyrazole-4-carbonyl]-5-methyl-1H-indol-6-yl]-4,6-diazaspiro[2.4]heptane-5,7-dione]
20 | 71 nM | 1400 nM | 8.2 nM | Cc1cc(-n2ncc(C(=O)c3cc4cc(C)c(N5C(=O)NC6(COC6)C5=O)cc4[nH]3)c2N)ccc1Oc1ccccc1F [Example 5-1-475, 7-[2-[5-amino-1-[4-(2-fluorophenoxy)-3-methylphenyl]pyrazole-4-carbonyl]-5-methyl-1H-indol-6-yl]-2-oxa-5,7-diazaspiro[3.4] octane-6,8-dione]
21 | 12 nM | 97 nM | 2.9 nM | Cc1cc2cc(C(=O)c3cnn(-c4ccc(Oc5ccccc5F)cc4C)c3N)[nH]c2cc1N1C(=O)N[C@@H](C(C)C)C1=O [Example 5-1-476, (5S)-3-[2-[5-amino-1-[4-(2-fluorophenoxy)-2-methylphenyl]pyrazole-4-carbonyl]-5-methyl-1H-indol-6-yl]-5-propan-2-ylimidazolidine-2,4-dione]
22 | 250 nM | 710 nM | 6.7 nM | COc1cccc(S(=O)(=O)Nc2cc3[nH]c(C(=O)c4cnn(-c5cnc(Oc6ccccc6F)cc5C)c4N)cc3cc2C)n1 [Example 5-1-483, N-[2-[5-amino-1-[6-(2-fluorophenoxy)-4-methylpyridin-3-yl]pyrazole-4-carbonyl]-5-methyl-1H-indol-6-yl]-6-methoxypyridine-2-sulfonamide]
